Results published in PubChem BioAssay AID248 (DTP/NCI, 2004).
Values joined by “and” are separate entries in the source; they are usually repeats but may differ in a detail not shown here. Identical values can stand only once. Toxic doses and inconclusive results are not listed.

Test system: L1210 leukemia ip in BDF1 mice, survival T/C
Experiment: NCI In Vivo Anticancer Drug Screen. Data for tumor model L1210 Leukemia (intraperitoneal) in B6D2F1 (BDF1) mice
Details: endpoint: mean survival time, higher = longer survival
Summary of the method: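 In this screen, tumor-bearing mice given compound are compared to those given vehicle, and their survival values are reported as a treated-to-control quotient.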

[1] = dose: 50.0 mg/kg/injection, schedule: Q01DX009 (ip), vehicle: saline with Tween-80
[2] = dose: 100.0 mg/kg/injection, schedule: Q01DX009 (ip), vehicle: saline with Tween-80
[3] = dose: 100.0 mg/kg/injection, schedule: Q04DX002 (ip), vehicle: saline with Tween-80
[4] = dose: 200.0 mg/kg/injection, schedule: Q04DX002 (ip), vehicle: saline with Tween-80
[5] = dose: 400.0 mg/kg/injection, schedule: Q04DX002 (ip), vehicle: saline with Tween-80
[6] = dose: 100.0 mg/kg/injection, schedule: Q01DX001 (ip), vehicle: saline
[7] = dose: 200.0 mg/kg/injection, schedule: Q01DX001 (ip), vehicle: saline
[8] = dose: 200.0 mg/kg/injection, schedule: Q01DX009 (ip), vehicle: saline with Tween-80
[9] = dose: 100.0 mg/kg/injection, schedule: Q04DX003 (ip), vehicle: saline with Tween-80
[10] = dose: 200.0 mg/kg/injection, schedule: Q04DX003 (ip), vehicle: saline with Tween-80
[11] = dose: 400.0 mg/kg/injection, schedule: Q01DX009 (ip), vehicle: saline with Tween-80
[12] = dose: 100.0 mg/kg/injection, schedule: Q01DX009 (ip), vehicle: saline
[13] = dose: 100.0 mg/kg/injection, schedule: Q04DX003 (ip), vehicle: Klucel (hydroxypropylcellulose) (HPC)
[14] = dose: 200.0 mg/kg/injection, schedule: Q04DX003 (ip), vehicle: Klucel (hydroxypropylcellulose) (HPC)
[15] = dose: 400.0 mg/kg/injection, schedule: Q04DX003 (ip), vehicle: Klucel (hydroxypropylcellulose) (HPC)
[16] = dose: 400.0 mg/kg/injection, schedule: Q01DX001 (ip), vehicle: saline

`O=C(/C=C/C(=O)c1ccc(Cl)cc1)c1ccc(Cl)cc1` was tested, and the T/C (dose: 100.0 mg/kg/injection, schedule: Q01DX009 (ip), vehicle: gum acacia) was 95 % of control, the T/C (dose: 100.0 mg/kg/injection, schedule: Q04DX003 (ip), vehicle: gum acacia) was 97 % of control and the T/C (dose: 200.0 mg/kg/injection, schedule: Q01DX009 (ip), vehicle: gum acacia) was 95 % of control. The T/C (dose: 200.0 mg/kg/injection, schedule: Q04DX003 (ip), vehicle: gum acacia) was 95 % of control, the T/C (dose: 400.0 mg/kg/injection, schedule: Q01DX009 (ip), vehicle: gum acacia) was 101 % of control and the T/C (dose: 400.0 mg/kg/injection, schedule: Q04DX003 (ip), vehicle: gum acacia) was 95 % of control.

`O=C(NO)c1cc(Br)cc(Br)c1O` was tested, and the T/C (dose: 25.0 mg/kg/injection, schedule: Q01DX009 (ip), vehicle: saline with Tween-80) was 98 % of control, the T/C [1] was 102 % of control and the T/C [2] was 100 % of control. The T/C [3] was 93 % of control, the T/C [4] was 97 % of control and the T/C [5] was 200 % of control.

With `O=C(Nc1ccccc1)c1ccc(C(F)(F)F)cc1O` the T/C [3] was 105 % of control and the T/C [4] was 103 % of control.

`Oc1ccc(O)c2c1CNCC2O` (stereo not given) was tested, and the T/C [6] was 97 % of control and the T/C [7] was 104 % of control.

In the case of `C=C(C)/C=C/C1CCCCC1`, the T/C [1] is reported as 95 % of control, the T/C [2] is reported as 106 % of control and the T/C [8] is reported as 95 % of control.

For `CCOC(=O)c1cnc(SC)nc1N(C)C`, the T/C [9] was 96 % of control and the T/C [10] was 96 % of control.

`Cc1[nH]c2ccccc2c(=O)c1/C=N/NC(N)=S` was tested, and the T/C (dose: 100.0 mg/kg/injection, schedule: Q04DX002 (ip), vehicle: Klucel (hydroxypropylcellulose) (HPC)) was 109 % of control, the T/C (dose: 200.0 mg/kg/injection, schedule: Q04DX002 (ip), vehicle: Klucel (hydroxypropylcellulose) (HPC)) was 91 % of control and the T/C (dose: 400.0 mg/kg/injection, schedule: Q04DX002 (ip), vehicle: Klucel (hydroxypropylcellulose) (HPC)) was 98 % of control.

`Cc1ccc(Nc2cc(Br)c(N)c3c2C(=O)c2ccccc2C3=O)cc1` was tested, and the T/C (dose: 100.0 mg/kg/injection, schedule: Q01DX001 (ip), vehicle: saline with Tween-80) was 103 % of control, the T/C [2] was 93 % of control and 94 % of control and the T/C [3] was 92 % of control. The T/C [9] was 97 % of control, the T/C (dose: 200.0 mg/kg/injection, schedule: Q01DX001 (ip), vehicle: saline with Tween-80) was 102 % of control and the T/C [8] was 93 % of control and 94 % of control. For the same compound, the T/C [4] was 86 % of control, the T/C [10] was 95 % of control and the T/C (dose: 400.0 mg/kg/injection, schedule: Q01DX001 (ip), vehicle: saline with Tween-80) was 91 % of control. For the same compound, the T/C [11] was 96 % of control and 97 % of control, the T/C [5] was 86 % of control and the T/C (dose: 400.0 mg/kg/injection, schedule: Q04DX003 (ip), vehicle: saline with Tween-80) was 90 % of control.

`O=[N+]([O-])c1cc(Cl)c(O)c([N+](=O)[O-])c1O` was tested, and the T/C (dose: 75.0 mg/kg/injection, schedule: Q01DX001 (ip), vehicle: carboxymethylcellulose (CMC)) was 103 % of control.

For `CCOC(=O)c1c[nH]c2ccc(N(CCCl)CCCl)cc12`, the T/C (dose: 5.0 mg/kg/injection, schedule: Q01DX001 (ip), vehicle: carboxymethylcellulose (CMC)) was 98 % of control, the T/C (dose: 10.0 mg/kg/injection, schedule: Q01DX001 (ip), vehicle: carboxymethylcellulose (CMC)) was 104 % of control and the T/C (dose: 20.0 mg/kg/injection, schedule: Q01DX001 (oral), vehicle: carboxymethylcellulose (CMC)) was 98 % of control. The T/C (dose: 40.0 mg/kg/injection, schedule: Q01DX001 (oral), vehicle: carboxymethylcellulose (CMC)) was 103 % of control, the T/C (dose: 80.0 mg/kg/injection, schedule: Q01DX001 (oral), vehicle: carboxymethylcellulose (CMC)) was 103 % of control and the T/C (dose: 160.0 mg/kg/injection, schedule: Q01DX001 (oral), vehicle: carboxymethylcellulose (CMC)) was 107 % of control. The T/C (dose: 320.0 mg/kg/injection, schedule: Q01DX001 (oral), vehicle: carboxymethylcellulose (CMC)) was 115 % of control.

With `CC1c2c(ccc3c2CCC=C3)CCC1CC1=CCCc2ccc3ccccc3c21` (stereo not given) the T/C [12] was 107 % of control, the T/C [13] was 103 % of control and the T/C (dose: 200.0 mg/kg/injection, schedule: Q01DX009 (ip), vehicle: saline) was 95 % of control. For the same compound, the T/C [14] was 90 % of control, the T/C (dose: 400.0 mg/kg/injection, schedule: Q01DX009 (ip), vehicle: saline) was 93 % of control and the T/C [15] was 95 % of control.

In the case of `Cc1ccc(C)c(NC(=O)Nc2ncccn2)c1`, the T/C (dose: 100.0 mg/kg/injection, schedule: Q01DX009 (ip), vehicle: Klucel (hydroxypropylcellulose) (HPC)) is reported as 102 % of control, the T/C (dose: 200.0 mg/kg/injection, schedule: Q01DX009 (ip), vehicle: Klucel (hydroxypropylcellulose) (HPC)) is reported as 92 % of control and the T/C (dose: 400.0 mg/kg/injection, schedule: Q01DX009 (ip), vehicle: Klucel (hydroxypropylcellulose) (HPC)) is reported as 97 % of control.

With `CCCCOc1ccc(C=Nc2ccc(CC)cc2)cc1` the T/C [2] was 94 % of control, the T/C [8] was 102 % of control and the T/C [11] was 97 % of control.

In the case of `CC1(C)N=C(N)N=C(N)N1c1cccc(C(=O)Nc2cccc(S(=O)(=O)F)c2)c1`, the T/C (dose: 6.25 mg/kg/injection, schedule: Q#A X018 (ip), vehicle: saline) is reported as 97 % of control, the T/C (dose: 12.5 mg/kg/injection, schedule: Q01DX009 (ip), vehicle: saline) is reported as 103 % of control and the T/C (dose: 12.5 mg/kg/injection, schedule: Q#A X018 (ip), vehicle: saline) is reported as 101 % of control. For the same compound, the T/C (dose: 25.0 mg/kg/injection, schedule: Q01DX009 (ip), vehicle: saline) was 101 % of control, the T/C (dose: 25.0 mg/kg/injection, schedule: Q#A X018 (ip), vehicle: saline) was 101 % of control and the T/C (dose: 50.0 mg/kg/injection, schedule: Q01DX009 (ip), vehicle: saline) was 95 % of control and 107 % of control. The T/C (dose: 50.0 mg/kg/injection, schedule: Q#A X018 (ip), vehicle: saline) was 101 % of control, the T/C [6] was 105 % of control and the T/C [12] was 104 % of control. The T/C [7] was 94 % of control.

With `CCCCCC(CN(C)C)C(O)/C=C\c1ccccc1` (stereo not given) the T/C (dose: 12.5 mg/kg/injection, schedule: Q01DX009 (sc), vehicle: steriod suspending solution) was 97 % of control, the T/C (dose: 12.5 mg/kg/injection, schedule: Q04DX003 (ip), vehicle: other) was 119 % of control and the T/C (dose: 25.0 mg/kg/injection, schedule: Q01DX009 (sc), vehicle: steriod suspending solution) was 98 % of control. For the same compound, the T/C (dose: 25.0 mg/kg/injection, schedule: Q04DX003 (ip), vehicle: other) was 106 % of control, the T/C (dose: 50.0 mg/kg/injection, schedule: Q01DX009 (sc), vehicle: steriod suspending solution) was 97 % of control and the T/C (dose: 50.0 mg/kg/injection, schedule: Q04DX003 (ip), vehicle: other) was 103 % of control.

In the case of `CCCCCCCCCCCCCCCCCCSc1ccc2ccccc2c1`, the T/C [13] is reported as 105 % of control, the T/C [14] is reported as 94 % of control and the T/C [15] is reported as 91 % of control.

With `O=[N+]([O-])c1ccc(/C=N/c2ncc(Br)s2)o1` the T/C [1] was 102 % of control, the T/C [2] was 98 % of control and the T/C [9] was 111 % of control. The T/C [10] was 111 % of control.

For `O=[N+]([O-])c1ccc(-c2cc3ccccc3[n+]([O-])c2)cc1`, the T/C [6] was 98 % of control, the T/C [7] was 101 % of control and the T/C [16] was 101 % of control.

For `O=C1OC(=O)c2c(Br)cccc21`, the T/C (dose: 5.0 mg/kg/injection, schedule: Q04DX003 (ip), vehicle: Klucel (hydroxypropylcellulose) (HPC)) was 102 % of control, the T/C (dose: 10.0 mg/kg/injection, schedule: Q04DX003 (ip), vehicle: Klucel (hydroxypropylcellulose) (HPC)) was 100 % of control and the T/C (dose: 20.0 mg/kg/injection, schedule: Q04DX003 (ip), vehicle: Klucel (hydroxypropylcellulose) (HPC)) was 114 % of control.

With `COC(=O)CC(CC(=O)OC)c1ccc(OC)c([N+](=O)[O-])c1` the T/C (dose: 25.6 mg/kg/injection, schedule: Q04DX002 (ip), vehicle: saline with Tween-80) was 101 % of control, the T/C (dose: 64.0 mg/kg/injection, schedule: Q04DX002 (ip), vehicle: saline with Tween-80) was 101 % of control and the T/C (dose: 160.0 mg/kg/injection, schedule: Q04DX002 (ip), vehicle: saline with Tween-80) was 97 % of control. For the same compound, the T/C [5] was 93 % of control.

`COc1cc([N+](=O)[O-])c(C=O)cc1O` was tested, and the T/C (dose: 100.0 mg/kg/injection, schedule: Q01DX009 (ip), vehicle: acetone) was 97 % of control, the T/C (dose: 200.0 mg/kg/injection, schedule: Q01DX009 (ip), vehicle: acetone) was 100 % of control and the T/C (dose: 400.0 mg/kg/injection, schedule: Q01DX009 (ip), vehicle: acetone) was 100 % of control.

`O=S(=O)(/C=C(/Br)c1ccccc1)c1ccccc1` was tested, and the T/C [6] was 92 % of control, the T/C [7] was 97 % of control and the T/C [16] was 95 % of control.
